In article PMC3599540, “4-Aryl-4H-naphthopyrans derivatives: one-pot synthesis, evaluation of Src kinase inhibitory and anti-proliferative activities” (DARU Journal of Pharmaceutical Sciences, 2012):

Key:
c-Src kinase = target: T1, c-Src kinase (Homo sapiens, UniProt P12931); experiment: c-Src kinase activity assay (HTScan Src Kinase Assay Kit); assay type: biochemical; settings: concentration that inhibited enzyme activity by 50%; triplicate; read-out: IC50 (inhibition of Src kinase activity)
T1 construct: purchased Cell Signaling Technology (Danvers, MA, USA) 7776
Method: Streptavidin-coated plates were purchased from Pierce (Rockford, IL, USA). […] The reaction mixture was incubated for 30 min at room temperature. The kinase reaction was stopped with the addition of 50 μL of 50 mM EDTA (pH 8.0). […] At the end of the incubation, the wells were washed three times with 200 μL of 0.05% Tween-20 in PBS buffer (PBS/T). After that to each well was added 100 μL of phosphotyrosine antibody (P-Tyr-100) (1:1000 dilution in PBS/T with 1% BSA) and the wells were incubated for another 60 min. After washing three times with 0.05% Tween-20 in PBS/T, the wells were incubated with 100 μL secondary anti-mouse IgG antibody, which was HRP-conjugated (1:500 dilution in PBS/T with 1% BSA) for next 30 min at room temperature. The wells were washed five times with 0.05% Tween-20 in PBS and then were incubated with 100 μL of 3,3',5,5'-tetramethylbenzidine dihydrochloride (TMB) substrate for 5 min. The reaction was stopped by adding 100 μL/well of stop solution to each well and mixed well and read the absorbance at 450 nm using a microplate reader (Molecular devices, spectra Max M2). IC50 values of the compounds were calculated using ORIGIN 6.0 (origin lab) software. […] All the experiments were carried out in triplicate.

[1] = test system: breast carcinoma (BT-20) cell line; experiment: Cell proliferation assay (CellTiter 96) in BT-20 cells; assay type: cell-based; settings: DOX 10 μM, 72 h incubation, relative to DMSO control
Method: Breast carcinoma BT-20 (ATCC no. HTB-19) cell lines were obtained from American Type Culture Collection. Cells were grown on 75 cm^2 cell culture with EMEM medium for breast carcinoma and supplemented with 10% fetal bovine serum (FBS), and 1% penicillin-streptomycin solution (10,000 units of penicillin and 10 mg of streptomycin in 0.9% NaCl) in a humidified atmosphere of 5% CO2, 95% air at 37°C.
Cell proliferation assay of compounds was evaluated in BT-20 cells, and was compared with that of doxorubicin (DOX)[38]. Cell proliferation assay was carried out using CellTiter 96 aqueous one solution cell proliferation assay kit (Promega, USA). Briefly, upon reaching about 75-80% confluence, 5000 cells/well were plated in 96-well microplate in 100 μL media. After seeding for 72 h, the cells were treated with 50 μM compound in triplicate. […] The absorbance of the formazan product was measured at 490 nm using microplate reader. The blank control was recorded by measuring the absorbance at 490 nm with wells containing medium mixed with CellTiter 96 aqueous solution but no cells. Results were expressed as the percentage of the control (DMSO without compound set at 100%). The percentage of cell survival was calculated as (OD value of cells treated with test compound - OD value of culture medium) / (OD value of control cells – OD value of culture medium) × 100%. […]

[2] = test system: mesenchymal stem cell proliferation; parameters: method as in PMID 9562601; settings: cited from earlier work

T1 sequence (P12931 whole entry): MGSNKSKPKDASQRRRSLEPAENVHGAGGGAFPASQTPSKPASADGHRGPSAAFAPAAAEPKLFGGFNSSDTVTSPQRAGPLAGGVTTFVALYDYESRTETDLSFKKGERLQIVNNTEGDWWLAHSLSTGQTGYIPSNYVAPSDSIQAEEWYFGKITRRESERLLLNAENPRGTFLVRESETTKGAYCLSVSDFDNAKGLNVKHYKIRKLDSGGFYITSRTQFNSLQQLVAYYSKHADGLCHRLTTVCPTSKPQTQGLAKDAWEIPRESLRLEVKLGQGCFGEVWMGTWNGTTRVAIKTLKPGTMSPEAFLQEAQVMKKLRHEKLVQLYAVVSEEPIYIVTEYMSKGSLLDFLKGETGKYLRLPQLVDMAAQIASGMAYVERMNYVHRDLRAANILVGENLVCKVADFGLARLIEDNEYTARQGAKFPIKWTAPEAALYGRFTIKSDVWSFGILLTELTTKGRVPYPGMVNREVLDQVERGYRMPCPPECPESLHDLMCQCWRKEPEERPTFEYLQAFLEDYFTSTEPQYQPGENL

SMILES | IC50 (c-Src kinase) [µM] | also measured
N#CC1=C(N)Oc2c(ccc3ccccc23)C1c1ccccc1Cl (stereo not drawn) [Compound 4d] | 34.7 | 
COc1cccc2c1C(=O)c1c(O)c3c(c(O)c1C2=O)C[C@@](O)(C(=O)CO)C[C@@H]3O[C@H]1C[C@H](N)[C@H](O)[C@H](C)O1 [doxorubicin] |  | Inhibition of BT-20 cell growth (positive control) [1]: 25%
CSc1ccc(C2C(C#N)=C(N)OC3=C2CCc2ccccc23)cc1 (stereo not drawn) [compound B, 4-aryl-4H-5,6-dihydronaphtho[1,2-b]pyran] |  | IC50 [2]: 13 µM

Second part, led by results:

IC50 (c-Src kinase) [µM] | SMILES | also measured
34.5 | COc1ccc(C2C(C#N)=C(N)Oc3ccc4ccccc4c32)cc1 (stereo not drawn) [Compound 4n] | 
33.8 | N#CC1=C(N)Oc2ccc3ccccc3c2C1c1cccc(O)c1 (stereo not drawn) [Compound 4m] | 
41.7 | N#CC1=C(N)Oc2ccc3ccccc3c2C1c1cccc(Cl)c1 (stereo not drawn) [Compound 4j] | 
